In ChEMBL document CHEMBL4330166, “Euphorhelipanes A and B, Triglyceride-Lowering Euphorbia Diterpenoids with a Bicyclo[4.3.0]nonane Core from Euphorbia helioscopia” (J Nat Prod, 2019):
Calls of active or inactive are those of the source. The calls are words filed in the database; no cut-off is given here.

Tests used:
Huh-7 [1] = assay: Inhibition of oleic acid-induced triglyceride accumulation in human HuH7 cells after 24 hrs; format: functional, cell-based
Huh-7 [2] = assay: Inhibition of oleic acid-induced triglyceride accumulation in human HuH7 cells up to 50 uM after 24 hrs by Oil Red O staining based assay; format: functional, cell-based
Huh-7 [3] = assay: Cytotoxicity against human HuH7 cells after 24 hrs by LDH release assay; format: cell-based; settings: huh-7, 24 h

CC(=O)C(C)(C)/C=C/[C@H](C)[C@@]1(O)C(=O)[C@H]2[C@@H](C=C[C@@H]2C)[C@H](C)[C@@H]1O
inhibition (Huh-7 [1]): Dose-dependent effect
inhibition (Huh-7 [2]): Active
Activity (Huh-7 [3]): Non-Toxic

CC(=O)C(C)(C)/C=C/[C@@H](C)[C@@]1(O)C(=O)[C@H]2[C@@H](C=C[C@@H]2C)[C@H](C)[C@@H]1O
inhibition (Huh-7 [1]): Dose-dependent effect
inhibition (Huh-7 [2]): Active
Activity (Huh-7 [3]): Non-Toxic
